Literature values, collected in US20070128260A1, “Aqueous polymer dispersions for stabilizing actives” (priority 2005, published 2007).
Structures can show the parent of a compound that is named as a salt. Where two headings read alike, the source gives them in different places.

water sol. (25° C.)	Compound	also measured
77 mg/mL	Nc1nc(NC2CC2)c2ncn([C@H]3C=C[C@@H](CO)C3)c2n1 [Abacavir sulfate]	–
–	Nc1nc2c(ncn2COCCO)c(=O)[nH]1 [Acylovir]	water sol. (37° C.): 2.5 mg/mL
0.04 mg/mL	CC(C)CN(C[C@@H](O)[C@H](Cc1ccccc1)NC(=O)O[C@H]1CCOC1)S(=O)(=O)c1ccc(N)cc1 [Amprenavir]	–
–	Nc1ccn([C@@H]2CS[C@H](CO)O2)c(=O)n1 [Lamivudine]	water sol. (20° C.): 70 mg/mL
–	CC(=O)N[C@H]1[C@H]([C@H](O)[C@H](O)CO)OC(C(=O)O)=C[C@@H]1N=C(N)N [Zanamivir]	water sol. (20° C.): 18 mg/mL
20.1 mg/mL	Cc1cn([C@H]2C[C@H](N=[N+]=[N-])[C@@H](CO)O2)c(=O)[nH]c1=O [Zidovudine]	–
0.31 mg/mL	CC(C)CN(C[C@@H](OP(=O)(O)O)[C@H](Cc1ccccc1)NC(=O)O[C@H]1CCOC1)S(=O)(=O)c1ccc(N)cc1 [fosamprenavir]	–
174 mg/mL	CC(C)[C@H](N)C(=O)OCCOCn1cnc2c(=O)[nH]c(N)nc21 [valacyclovir]	–
